Experimental data taken from patent US20050239656A1, “Pyridine compounds or salts thereof and herbicides containing the same” (priority 2002, published 2005).

Key:
crabgrass [1] = assay: Test Example 1: foliage treatment, upland pot test; type: in vivo, Digitaria sanguinalis L.; settings: active ingredient 500 g/ha, observed 18th to 23rd day, 0 = non-treated, 100 = complete kill
Text: (§1) Upland field soil was put into a 1/170,000 ha pot, and seed of various plants were sown. Then, when the plants reached predetermined leaf stages ((1) barnyardgrass: 1.3 to 2.8 leaf stages, (2) crabgrass: 1.0 to 2.8 leaf stages, (3) green foxtail: 1.3 to 2.6 leaf stages, (4) redroot pigweed: 0.1 to 1.2 leaf stages, (5) prickly sida: 0.1 to 1.2 leaf stages, (6) velvetleaf: 0.1 to 1.2 leaf stages, (7) tall morningglory: 0.1 to 1.5 leaf stages, (8) rice: 1.2 to 2.6 leaf stages, (9) wheat: 1.3 to 2.4 leaf stages, (10) corn, 2.1 to 3.2 leaf stages, (11) soybean: 0.1 to 0.4 leaf stage), a wettable powder or emulsifiable concentrate having the compound of the present invention formulated in accordance with a usual formulation method, was weighed so that the active ingredient would be a predetermined amount, and diluted with water in an amount of 500 L/ha. To the diluted solution, 0.1% (v/v) of agricultural spreader was added. The herbicide thus adjusted was applied by a small size sprayer for foliage treatment. On the 18th to 23rd days after the application of the herbicide, the growth of the respective plants was visually observed, and the herbicidal effects were evaluated by the growth controlling degrees (%) ranging from 0 (equivalent to the non-treated plot) to 100 (complete kill), whereby the results shown in Table 3, were obtained.

japanese ribbon wapato = assay: Test Example 3: paddy pot test, application under submerged conditions; type: in vivo, Sagittaria pygniaea; settings: submerged application at primary leaf stage, visually observed 14 days after application, 0 = non-treated, 100 = complete kill
Summary of the method: (§2)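 Visual growth-control rating (0 = untreated, 100 = complete kill) 14 days after treatment. The formulated compound, as a diluted wettable powder or emulsifiable concentrate, went into 3–4 cm flood water at a predetermined active-ingredient dose once the weeds reached 0.5 leaf stage (wapato: primary leaf stage).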

redroot pigweed [2] = assay: Test Example 1: foliage treatment, upland pot test; type: in vivo, Amaranthus retroflexus L.; settings: active ingredient 500 g/ha, observed 18th to 23rd day, 0 = non-treated, 100 = complete kill
Text: as §1

rice (var. Nihonbare) = assay: Test Example 3: paddy pot test, transplanted rice; type: in vivo, Oryza sativa L.; settings: applied 4th day after transplantation, visually observed 21st day after application, 0 = non-treated, 100 = complete kill
Summary of the method: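 Rice (var. Nihonbare) at 2 leaf stage transplanted 3 cm deep into puddled paddy soil under 3–4 cm flooding; on day 4 after transplanting, diluted wettable powder or emulsifiable concentrate applied by pipette under submerged conditions at a set active-ingredient dose. Growth scored visually 21 days after application, 0 (untreated) to 100 (complete kill) %.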

barnyardgrass [3] = assay: Test Example 3: paddy pot test, application under submerged conditions; type: in vivo, Echinochloa crus-galli L.; settings: submerged application at 0.5 leaf stage, visually observed 14 days after application, 0 = non-treated, 100 = complete kill
Summary of the method: as §2

velvetleaf [4] = assay: Test Example 1: foliage treatment, upland pot test; type: in vivo, Abutilon theophrasti MEDIC.; settings: active ingredient 500 g/ha, observed 18th to 23rd day, 0 = non-treated, 100 = complete kill
Text: as §1

barnyardgrass [5] = assay: Test Example 1: foliage treatment, upland pot test; type: in vivo, Echinochloa crus-galli L.; settings: active ingredient 500 g/ha, observed 18th to 23rd day, 0 = non-treated, 100 = complete kill
Text: as §1

rice [6] = assay: Test Example 1: foliage treatment, upland pot test; type: in vivo, Oryza sativa L.; settings: crop, active ingredient 500 g/ha, observed 18th to 23rd day, 0 = non-treated, 100 = complete kill
Text: as §1

japanese bulrush = assay: Test Example 3: paddy pot test, application under submerged conditions; type: in vivo, Scirpus juncoides; settings: submerged application at 0.5 leaf stage, visually observed 14 days after application, 0 = non-treated, 100 = complete kill
Summary of the method: as §2

prickly sida [7] = assay: Test Example 1: foliage treatment, upland pot test; type: in vivo, Sida spinosa L.; settings: active ingredient 500 g/ha, observed 18th to 23rd day, 0 = non-treated, 100 = complete kill
Text: as §1

corn [8] = assay: Test Example 1: foliage treatment, upland pot test; type: in vivo, Zea mays L.; settings: crop, active ingredient 500 g/ha, observed 18th to 23rd day, 0 = non-treated, 100 = complete kill
Text: as §1

soybean [9] = assay: Test Example 1: foliage treatment, upland pot test; type: in vivo, Glycine max Merr.; settings: crop, active ingredient 500 g/ha, observed 18th to 23rd day, 0 = non-treated, 100 = complete kill
Text: as §1

green foxtail [10] = assay: Test Example 1: foliage treatment, upland pot test; type: in vivo, Setaria viridis L.; settings: active ingredient 500 g/ha, observed 18th to 23rd day, 0 = non-treated, 100 = complete kill
Text: as §1

corn [11] = assay: Test Example 2: soil surface treatment, upland pot test; type: in vivo, Zea mays L.; settings: active ingredient 500 g/ha, observed 20th to 28th day
Summary of the method: (§3)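 Soil surface treated 1 day post-sowing. Formulation: WP or EC, predetermined a.i., diluted to 1,500 L/ha. Pot size 1/170,000 ha, upland soil. Readout: visual % control, 0 = non-treated, 100 = dead, days 20–28.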

redroot pigweed [12] = assay: as above; type: in vivo, Amaranthus retroflexus L.; settings: active ingredient 500 g/ha, observed 20th to 28th day
Summary of the method: as §3

barnyardgrass [13] = assay: as above; type: in vivo, Echinochloa crus-galli L.; settings: active ingredient 500 g/ha, observed 20th to 28th day
Summary of the method: as §3

green foxtail [14] = assay: as above; type: in vivo, Setaria viridis L.; settings: active ingredient 500 g/ha, observed 20th to 28th day
Summary of the method: as §3

velvetleaf [15] = assay: as above; type: in vivo, Abutilon theophrasti MEDIC.; settings: active ingredient 500 g/ha, observed 20th to 28th day
Summary of the method: as §3

crabgrass [16] = assay: as above; type: in vivo, Digitaria sanguinalis L.; settings: active ingredient 500 g/ha, observed 20th to 28th day
Summary of the method: as §3

soybean [17] = assay: as above; type: in vivo, Glycine max Merr.; settings: active ingredient 500 g/ha, observed 20th to 28th day
Summary of the method: as §3

prickly sida [18] = assay: as above; type: in vivo, Sida spinosa L.; settings: active ingredient 500 g/ha, observed 20th to 28th day
Summary of the method: as §3

rice [19] = assay: as above; type: in vivo, Oryza sativa L.; settings: active ingredient 500 g/ha, observed 20th to 28th day
Summary of the method: as §3

| Compound | Growth controlling degree (%) Crabgrass (crabgrass [1]) [%] | Growth controlling degree (%) Japanese ribbon wapato (japanese ribbon wapato; active ingredient 250 g/ha) [%] | Growth controlling degree (%) Redroot pigweed (redroot pigweed [2]) [%] | Growth controlling degree (%) Rice (rice (var. Nihonbare); active ingredient 250 g/ha) [%] | Growth controlling degree (%) Barnyardgrass (barnyardgrass [3]; active ingredient 250 g/ha) [%] | Growth controlling degree (%) Velvetleaf (velvetleaf [4]) [%] | Growth controlling degree (%) Barnyardgrass (barnyardgrass [5]) [%] | Growth controlling degree (%) Rice (rice [6]) [%] | Growth controlling degree (%) Japanese bulrush (japanese bulrush; active ingredient 250 g/ha) [%] | Growth controlling degree (%) Prickly sida (prickly sida [7]) [%] | Growth controlling degree (%) Corn (corn [8]) [%] | Growth controlling degree (%) Soybean (soybean [9]) [%] | Growth controlling degree (%) Green foxtail (green foxtail [10]) [%] | Growth controlling degree (%) Corn (corn [11]) [%] | Growth controlling degree (%) Redroot pigweed (redroot pigweed [12]) [%] | Growth controlling degree (%) Barnyardgrass (barnyardgrass [13]) [%] | Growth controlling degree (%) Green foxtail (green foxtail [14]) [%] | Growth controlling degree (%) Velvetleaf (velvetleaf [15]) [%] | Growth controlling degree (%) Crabgrass (crabgrass [16]) [%] | Growth controlling degree (%) Soyabean (soybean [17]) [%] | also measured |
| --- | --- | --- | --- | --- | --- | --- | --- | --- | --- | --- | --- | --- | --- | --- | --- | --- | --- | --- | --- | --- | --- |
| CC(C)C(c1cnccc1C(F)(F)F)N(C)C(=O)Cc1ccc(C#N)cc1 (racemic) [I-114] | 80 | 95 | 60 | 30 | 100 | 70 | 80 | 30 | 95 | 80 | 60 | 70 | 70 | – | – | – | – | – | – | – | – |
| CC(C)C(c1cnccc1C(F)(F)F)N(C)C(=O)Cc1ccc(Cl)c(Cl)c1 (stereo not drawn) [I-28] | 80 | 10 | 80 | 0 | 100 | 90 | 10 | 0 | 70 | 70 | 0 | 60 | 60 | 0 | 70 | 70 | 70 | 50 | 80 | 0 | Growth controlling degree (%) Prickly sida (prickly sida [18]): 30% |
| CC(C)C(c1cnccc1C(F)(F)F)N(C)C(=O)Cc1ccc(C(F)(F)F)cc1 (stereo not drawn) [I-31] | 85 | – | 80 | 20 | 100 | 95 | 95 | 40 | 95 | 80 | 70 | 90 | 80 | 30 | 80 | 100 | 100 | 50 | 90 | 50 | Growth controlling degree (%) Rice (rice [19]): 10%; Growth controlling degree (%) Prickly sida (prickly sida [18]): 100% |
| CCOC(=O)N(C)C(c1cnccc1C(F)(F)F)c1cccc2ccccc12 (stereo not drawn) [I-54] | 95 | – | 80 | – | – | 95 | 50 | 30 | – | 90 | 50 | 50 | 50 | – | – | – | – | – | – | – | Growth controlling degree (%) Japanese ribbon wapato (japanese ribbon wapato; active ingredient 500 g/ha): 0%; Growth controlling degree (%) Rice (rice (var. Nihonbare); active ingredient 500 g/ha): 20%; Growth controlling degree (%) Barnyardgrass (barnyardgrass [3]; active ingredient 500 g/ha): 100%; Growth controlling degree (%) Japanese bulrush (japanese bulrush; active ingredient 500 g/ha): 70% |
| CC(C)C(c1cnccc1Cl)N(C)C(=O)Cc1cccc(C(F)(F)F)c1 (stereo not drawn) [I-68] | 60 | – | 70 | – | – | 80 | 0 | 0 | – | 70 | 0 | 10 | 10 | – | – | – | – | – | – | – | Growth controlling degree (%) Japanese ribbon wapato (japanese ribbon wapato; active ingredient 125 g/ha): 50%; Growth controlling degree (%) Rice (rice (var. Nihonbare); active ingredient 125 g/ha): 10%; Growth controlling degree (%) Barnyardgrass (barnyardgrass [3]; active ingredient 125 g/ha): 95%; Growth controlling degree (%) Japanese bulrush (japanese bulrush; active ingredient 125 g/ha): 70% |
